How the values were obtained:
[1] = test system: NF-κB in nuclei from spleen cells; assay: kinetic analysis of NF-kB inhibition in vivo after LPS, Example 9; parameters: species or system mouse; settings: about 40 mg/kg i.p. 24 h before LPS
Protocol: Kinetic analysis of NF-kB inhibition in vivo. […] The drug was injected 24 hours before intraperitoneal injection of bacterial LPS (about an LD50/24). The study used two groups of 12 animals, vehicle control or drug administered 24 hours before LPS challenge. Spleens were harvested from 3 animals from both groups just before LPS challenge and at 1.5, 2.0 and 2.5 hours after administration of LPS.
Maximum NF-κB activation after LPS administration occurred at 1.5 hours in the vehicle controls, which was 4-fold increased over the pre-LPS level of activated NF-κB. The values for the vehicle control and drug treated animals are relative optical density units from ELISA measurement of NF-κB in nuclei from spleen cells.

[2] = test system: human peripheral blood mononuclear cells (PBMC); assay: human mixed lymphocyte reaction (MLR); type: cell-based; settings: either 300 nM or 30 nM; 6 days; p>0.05
Protocol: Human mixed lymphocyte reaction (MLR). The capacity of 3β,16α-dihydroxy-17-oxoandrostane, 3β,17β-dihydroxy-16-oxoandrostane, 17α-ethynylandrost-5-ene-3β,7β,17β-triol, and 17β-aminoandrost-5-ene-3β-ol to affect antigen specific stimulation in which human T lymphocytes respond to a specific foreign antigen (major histocompatibility complex).
Blood samples were obtained from 3 (2 males, […]) fasting, healthy human volunteers of 23-31 years old. […] The subjects were bled between […] to limit possible fluctuations in the circulating levels of hormones or cytokines that could have influenced the in vitro responses of their lymphocytes. Peripheral blood mononuclear cells (PBMC) were isolated by centrifugation on Ficoll-Hypaque (density 1.077, Biochrom AG, Berlin, Germany) gradients and resuspended in culture medium (RPMI 1640 supplemented with 2 mM L-glutamine, penicillin (100 U/mL) and streptomycin ([…]) (Invitrogen s.rl., Milan, Italy). Autologous (responder) inactivated plasma was used at 10%. Five hundred thousand responder PBMC (PBMCr) and 500,000 allogeneic irradiated (30 Gy) stimulator PBMC (PBMCs) were mixed at a ratio of 1:1 in 200 μL medium and cultured for 6 days in flat bottom 96 well plates (Nunc, Roskilde, Denmark) at a concentration of 300 nM or 30 nM for each of the 4 compounds. The compounds were dissolved in ethanol and then diluted to the desired concentration with culture medium leading to a final solution containing 0.01% of ethanol. This vehicle was used as control. Controls also included PBMCr and PBMCs cultured separately. During the last 8 hours of the culture period the PBMC were pulsed with 1 μCi/well [^3H] thymidine (Amersham, Milan, Italy). The cells were then harvested and radioactivity incorporation measured with a beta cell counter. The mean cpm of quadruplicate wells was calculated. Proliferation of T cells was expressed as a stimulation index: SI=cpm (PMBCs xPBMCr)/cpm (PBMCr)+cpm (PBMCs). Statistical analysis was performed using the Student's t test. The cpm obtained from quadruplicate of each test compound were compared to proliferative responses obtained in control PBMCr and PBMCs cultured in the presence of the vehicle. Differences were considered significant at p<0.05.

[3] = test system: BALB/C mice, TNP-OVA sensitized; assay: reporter antigen popliteal lymph node (PLN) assay; type: in vivo, mouse; settings: for average number of lymphocytes in PLNs: day 5
Source text: Analysis of immune suppression. Glucocorticoid steroids such as dexamethasone or hydrocortisone are typically immune suppressive and have significant toxicities associated with their use. Immune suppression was examined in a reporter antigen popliteal lymph node assay in mice essentially as previously described (C. Goebel et al., Inflamm. Res., 45(Suppl. 2):S85-S90, 1996; R. Pieters et al., Environmental Health Perspectives 107(Suppl. 5):673-677,1999). […] In this protocol, the vehicle was 0.1% carboxymethylcellulose, 0.9% saline, 2% tween 80 and 0.05% phenol, which contained 17α-ethynylandrost-5-ene-3β,7β,17β-triol in suspension in drug treated animals. Assessment of activity included (1) measuring suppression of numbers of total lymphocytes, antigen specific IgM, IgG1 and IgG2a antibody secreting cells (ASC) (ELISPOT assay) in popliteal lymph node cells; (2) analysis of cell surface marker (CD4, CD8, CD19, F480, CD80, CD86) expression by flow cytometry of living cells in suspension; and (3) IL-4, TNFα and IFNγ production by lymphocytes in vitro (ELISA).
Groups (n=5 per group) of specific pathogen free BALB/C mice were used. The Positive control group was treated with vehicle (oral gavage) and 5 μg/day dexamethasone by subcutaneous injection to induce immune suppression. Vehicle control animals (negative control) were treated with vehicle alone (oral gavage). One group of animals was treated with 17α-ethynylandrost-5-ene-3β,7β,17β-triol at 0.1 mg/day by oral gavage. Another group was treated with 1 mg/day of 17α-ethynylandrost-5-ene-3β,7β,17β-triol was administered to the animals oral gavage. The results were analyzed by two-tailed Student's t-test with equal variance. The animals were injected in the right hind footpad with 50 μL of freshly prepared sensitizing dose of TNP-OVA. Dexamethasone (decadron phosphate injection; dexamethasone sodium phosphate) was administered by subcutaneous injection into the nape of the neck daily, immediately following sensitization with TNP-OVA. 17α-Ethynylandrost-5-ene-3β,7β,17β-triol was given immediately afterwards by gavage. Five days after injection of TNP-OVA, blood was drawn by orbital puncture, and the mice were euthanized by cervical dislocation and popliteal lymph nodes were removed and separated from adherent fatty tissue. Single cell suspensions were prepared, resuspended in 1 mL PBS-BSA (1%) and counted. Cell numbers, IL-4, IL-5 and IFNγ were measured.

DIO mice = assay: diet induced obesity (DIO) mouse, OGTT; type: in vivo; settings: 20, 40 or 80 mg/kg twice a day oral gavage up to 28 days
Source text: Diet induced obesity (DIO) mouse hyperglycemia treatment. The effect of a drug to enhance peripheral sensitivity to insulin can be studied in a mouse model in which a state of insulin resistance is attained by feeding the animals a fat-enriched diet (60% of total caloric intake) for at least 6 weeks. This model has been described, e.g., J. N. Thupari et al., Proc. Natl. Acad. Sci. USA, 99(14):9498-9502, 2002, H. Xu et al., J. Clin. Invest., 112:1821-1830, 2003, H. Takahashi et al., J. Biol. Chem., 278(47):46654-46660, 2003.
For these studies, animals of approximately 4 weeks of age were divided into groups of 10 animals each and then treated with a vehicle control (no drug) or 17α-ethynylandrost-5-ene-3β,7β,17β-triol by oral gavage. The 17α-ethynylandrost-5-ene-3β,7β,17β-triol was administered at 20 mg/kg, 40 mg/kg or 80 mg/kg twice a day for up to 28 days. At day 14 and day 28 during the dosing period an OGTT was performed.

C#C[C@]1(O)CC[C@H]2[C@@H]3[C@@H](O)C=C4C[C@@H](O)CC[C@]4(C)[C@H]3CC[C@@]21C [17α-ethynylandrost-5-ene-3β,7β,17β-triol]
activated NF-κB in spleen cell nuclei (ELISA) ([1]; 0 hours (just before LPS)): 22 relative optical density units
activated NF-κB in spleen cell nuclei (ELISA) ([1]; 1.5 hours after LPS): 2 relative optical density units
activated NF-κB in spleen cell nuclei (ELISA) ([1]; 2.0 hours after LPS): 7 relative optical density units
activated NF-κB in spleen cell nuclei (ELISA) ([1]; 2.5 hours after LPS): 9 relative optical density units
immune suppression in the MLR [2]: not appreciably immune suppressive
average number of lymphocytes in PLNs ([3]; 0.1 mg/day by oral gavage): 11.1×10^6 lymphocytes per lymph node
average number of lymphocytes in PLNs ([3]; 1 mg/day by oral gavage): 8.2×10^6 lymphocytes per lymph node
IFNγ, IL-4 and IL-5 levels compared to the vehicle control group ([3]; compound 1.0 mg/day and 0.1 mg/day oral, dexamethasone 5 μg/day s.c.): increased
glucose intolerance (OGTT glycemic excursion) compared to vehicle (DIO mice): notably reduced glucose intolerance

Source: US20080153792A1, “Drug Identification and Treatment Method” (priority 2006, published 2008)
